# Source: US20220389109A1, “Management of conditions other than multiple sclerosis in ofatumumab-treated patients” (Novartis AG, priority 2019, published 2022)
# Where two headings read alike, the source gives them in different places.
# How the values were obtained:
# [1] = tested on: IgG, B-cell subtypes, adverse events; details: human, in vivo
# Procedure: MS patients are treated with either ofatumumab or Ocrevus (ocrelizumab). Selected patients having psoriatic arthritis are monitored under a special study program. […] Some of them cannot take a disease-modifying antirheumatic drugs (DMARD) such as • Leflunomide (Arava), • Methotrexate (Otrexup, Rasuvo, Rheumatrex, Trexall) or • Sulfasalazine (Azulfidine).
# Thus, they are treated with an immunosuppressant, i.e. one of • Azathioprine (Imuran, Azasan) or • Cyclosporine (Gengraf, Neoral, Sandimmune).
# total immunoglobulins = details: over the controlled period of the studies, mainly driven by reduction in IgM; cited from earlier work
# [2] = tested on: serum immunoglobulin (IgG); details: cited from earlier work
# [3] = tested on: total B cells (CD19+ CD45+), CD20+ CD3+ T cells; experiment: APLIOS Phase 2 study: B and T-cell subsets in blood by FACS; type: in vivo, human; details: 20 mg s.c.
# Procedure: APLIOS was a 12-week, open-label, Phase 2 bioequivalence study. Patients received ofatumumab 20 mg (0.4 mL) s.c. loading doses on Days 1, 7 and 14, and maintenance doses every 4 weeks from Week 4 via a prefilled syringe or an autoinjector pen (SensoReady). Changes in B and T-cell subsets were analysed longitudinally in blood samples of a group of patients using fluorescence-activated cell sorting (FACS).
# [4] = tested on: urinary tract infections, B-cell subtypes; details: human, in vivo
# From the text: A first group of patients is monitored after an ischemic stroke. A sub-group of the patients are expected to have difficulty with urinary leakage or are not able to empty their bladder completely because of muscle weakness. For these reasons, a catheter will be placed inside the bladder. However, there is an increased risk of urinary tract infections related to the use of a catheter. These infections will be treated with one of • Trimethoprim/sulfamethoxazole (Bactrim, Septra, others), • Fosfomycin (Monurol), • Nitrofurantoin (Macrodantin, Macrobid), • Cephalexin (Keflex) or • Ceftriaxone.
# A second group of patients consists of ofatumumab-treated MS patients. A sub-group of the patients develops adverse events, including urinary tract infections. These infections are treated with one of • Trimethoprim/sulfamethoxazole (Bactrim, Septra, others), • Fosfomycin (Monurol), • Nitrofurantoin (Macrodantin, Macrobid), • Cephalexin (Keflex) or • Ceftriaxone.
# [5] = design: species or system human; details: in vivo
# Procedure: (§1) ASCLEPIOS I and II are double-blind, double-dummy, active comparator-controlled, parallel-group, innovative, adaptive design, multicentre trials. Patients were randomised (1:1) to receive either ofatumumab 20 mg sc injections every 4 weeks (after an initial loading regimen of 20 mg sc doses on Days 1, 7 and 14) or teriflunomide 14 mg orally once daily, for up to 30 months. The studies have flexible durations, with termination occurring in the blinded core treatment epoch according to pre-specified criteria. Patients aged 18-55 years with an Expanded Disability Status Scale (EDSS) score (according to Kurtzke, Neurology. 1983, November; 33(11): 1444-52) of 0-5.5 at screening who experienced ≥1 relapse in the past year or ≥2 relapses in the past 2 years or a positive gadolinium-enhancing (Gd+) MRI scan during the year before randomisation were included.
# (§2) Serum IgG/IgM levels were monitored at baseline, Week (W) 4, W12 and every 12 weeks, see FIG. 1. […] Reference is made to FIG. 1.
# [6] = tested on: (total) IgG, B-cell subtypes; details: human, in vivo
# Procedure: Ofatumumab is administered s.c. to RRMS patients. If injection-related reactions occurs, symptomatic treatment is provided. For patients who experienced pain, redness or itching, hydrocortisone cream is applied after the injection to help with itching, redness and swelling. A pain reliever is also be used.
# [7] = tested on: Immunoglobulin G, Plasma/Serum; design: species or system human; details: in vivo
# Procedure: as §1, §2
# • At each visit-window, only patients with a value at both Baseline and that visit-window are included.
# MS patients = details: cited from earlier work; for reduction in annualized relapse rate compared to teriflunomide: p<0.001
# IgM = details: in vivo; cited from earlier work
substance,measurement,setting,value
ocrelizumab,adverse events (e.g. infections) after treatment with the immunosuppressant,[1],significantly more adverse events
same,change in total immunoglobulins,total immunoglobulins,decrease in total immunoglobulins
same,reduction of IgG levels,"[2]; after two years (96 weeks), pooled OPERA",approx. 5%
same,"reduction in serum Ig levels, approximate mean rate",[2]; assessed over 5.5 years,3-4 % per year
ofatumumab,depletion of CD20+ CD3+ T cells,[3],rapidly and potently depleted
same,depletion of memory B cells (CD19+ CD45+ CD27+) compared with naïve B cells,[3],more efficient depletion
same,median total B-cell levels,"[3]; by Day 7 through Day 14 of the loading regimen, maintained for remaining study duration",≤ 5 cells/μL
same,depletion in total B cells (CD19+ CD45+),[3]; measured on Day 4 and Day 7,rapid and sustained depletion
same,follicular B-cell subtype,[4],marked decrease
same,management of urinary tract infections,[4],No significant difference
same,marginal zone and germinal center B-cell subtypes,[4],less affected
same,incidence of infections,[5],Advantageous low incidence
same,follicular B-cell subtype,[1],marked decrease
same,level of IgG versus Ocrevus-treated patients,[1],significantly higher
same,marginal zone and germinal center B-cell subtypes,[1],less affected
same,combined immunosuppression or toxicity of ofatumumab and hydrocortisone,[6],no evidence
same,follicular B-cell subtype,[6],marked decrease
same,marginal zone and germinal center B-cell subtypes,[6],less affected
same,level of (total) IgG in patients with injection-related reactions versus without reactions and hydrocortisone,[6]; sc,comparable
same,IgG decrease as compared with teriflunomide-treated patients,[7],less pronounced and shorter
same,turning point at which the trend of decreasing IgG levels reverses,[7],36 week
same,reduction in annualized relapse rate compared to teriflunomide,MS patients; ASCLEPIOS I,50.5%
same,reduction in annualized relapse rate compared to teriflunomide,MS patients; ASCLEPIOS II,58.5%
same,suppression of gadolinium (Gd) T1 lesions compared to Aubagio,MS patients; in vivo,highly significant suppression
same,relative risk reduction in 6-month CDP versus Aubagio,"MS patients; pre-specified pooled analyses, p=0.012",32.5%
rituximab,effect on IgM levels,IgM,depression of IgM levels
